From a melting point compilation (Tetko et al.; mined from patent text by program, amines drawn as free bases though some values may be those of a salt)

| Compound | melting point [°C] |
| --- | --- |
| CCOP(=O)(/C=C\c1cnc(-c2ccccc2)nc1OCc1ccc(OCc2nc(-c3ccco3)oc2C)c(OC)c1)OCC | 103 to 104 |
| CNC(=S)N(C)Cc1cnc(Cl)s1 | 129 to 131 |
| Cc1cc(-c2cc(C(F)F)n3ncc(C(=O)Nc4cccc(S(=O)(=O)NC5CC5)c4)c3n2)ccc1C(F)(F)F | 199 |
| CC(C)c1nc(C(C)C)c(CSc2c(F)c(F)cc(F)c2F)c(-c2ccc(F)cc2)c1CO | 109 to 110 |
| O=C(NCC(F)(F)F)C1(CCCCc2ccc(NS(=O)(=O)c3ccccc3[N+](=O)[O-])cc2)c2ccccc2-c2ccccc21 | 60 to 64 |
| O=C(Nc1cccc2c1C(=O)c1c-2n[nH]c1-c1ccc(C(=O)N2CCC(N3CCCC3)CC2)s1)NN1CCOCC1 | 228 |
| NC(=O)N1CCN(CC(O)COc2ccc(Cl)cc2)CC1 (configuration not stated) | 193 to 196 |
| O=C(NCCO)c1cccc(-c2cccc3nn(Cc4cc(F)cc(Cl)c4)cc23)c1 | 188 to 189 |
| COC(=O)CCC(N=O)C(C)(C)Cl (configuration not stated) | 90 to 91 |
| O=C(O)c1cn(C2CC2)c2c(F)c(N3CCOC(CN4CCNCC4)C3)c(F)cc2c1=O (configuration not stated) | 260 |
| CCCCCCCC(=O)CCCCCC(=O)N[C@@H](C)C(=O)O | 84 to 86 |
| c1ccc(-c2nnsc2-c2ccc3c(c2)OCO3)cc1 | 107 to 109 |
| CC1(C)OC(=O)C(=C2NCCN2)C(=O)O1 | 181 to 182 |
| O=C(O)c1cc(C(=O)O)cc(N2C(=O)C=CC2=O)c1 | > 300 |
| CC#CC(=O)Nc1ccc(-n2nc(C(F)(F)F)cc2C(F)(F)F)cc1 | 220 to 221 |
| CC(C)(C)c1cc(C(=O)c2ccccc2C(=O)O)cc(C(C)(C)C)c1O | 173 to 174 |
| CCCn1nc(-c2ccc(OC(=O)CC)cc2)c2cccc(Cl)c21 | 66 to 67 |
| COC(=O)c1oc(Cl)nc1C | 69 to 71 |
| CCCN(C(=O)C(F)(F)F)c1ccc(I)cc1 | 177 to 179 |
| CSc1nnc(C2(C)CC2)c(=O)n1N | 115 to 116 |
| COc1cc(Cc2nc(NCC(C)C)c3c(C)c(C#N)sc3n2)cc(OC)c1OC | 129 to 131 |
| CC(C)CN1C(N)=CC(=O)N2CCN=C21 | 230 to 232 |

| Compound | melting point [°C] |
| --- | --- |
| CCOC(=O)C1=C(c2ccc(OC)cc2)Nc2n[nH]cc2C1c1ccccc1Cl (configuration not stated) | 211 |
| CCCCCCCCCCCCCCCCCCOC(=O)CCc1cc(C(C)(C)C)c(OP2Nc3ccccc3O2)c(C(C)(C)C)c1 (configuration not stated) | 58 to 65 |
| Cc1oc(-c2cccc(C(F)(F)F)c2)nc1COc1cccc(CN(O)C(N)=O)c1 | 160 to 161 |
| CNC(=O)N(O)C(C)C#CCCc1ccccc1 (configuration not stated) | 121 to 123 |
| CC(C)(C)OC(=O)ON=C(C#N)c1cccc2ccccc12 | 90 to 92 |
| O=S(=O)(c1cc(Cl)cc(Cl)c1)c1nnc(C(F)(F)F)s1 | 123 |
| FC(F)(F)COc1ccc(-c2cc(C(F)(F)F)n3ncc(-c4cccnc4)c3n2)cc1C(F)(F)F | 181 |
| Cc1ccc(-c2c3cc(C)ccc3nc3ccc(C)cc23)cc1 | 210 to 211 |
| Oc1ccc(OCCCCCCBr)cc1 | 43 to 45 |
| CCCCSN(C)C(=O)Nc1ccc(Cl)c(Cl)c1 | 47 |
| CCOC(=O)c1cn(Cc2ccccc2OC)c2sc(-c3ccc(N)cc3)c(CN(C)Cc3ccccc3)c2c1=O | 120 to 122 |
| O=CNc1cccc(C(=O)Nc2ccc(-c3ccccc3)cc2)c1O | 190 |
| Cc1cc(C2CCN(C(=O)OC(C)(C)C)CC2)cnc1COc1ccc(S(C)(=O)=O)cc1 | 130 to 132 |
| CNc1cc(NS(=O)(=O)c2ccc(C(C)(C)C)cc2)nc(NC)n1 | 316 to 318 |
| CC(c1oc2ccccc2c(=O)c1-c1cccc(F)c1)n1nc(-c2cc(F)c(O)c(F)c2)c2c(N)ncnc21 (configuration not stated) | 253 to 257 |
| Cc1c(NC(=O)c2ccc(OCC3CCOC3)cc2)ccc2cc(CNCC(C)C)cnc12 (configuration not stated) | 132 |
| CC(=O)Nc1ccc(C)c(C=O)n1 | 202 |
| Cc1cc(C)cc(COC(=O)C(Cc2c[nH]c3ccccc23)NS(C)(=O)=O)c1 (configuration not stated) | 96 to 97 |
| Cc1cc(CC#N)c(CC#N)cc1C | 103 to 104 |
| CCC(=O)N1N=C(c2ccc([N+](=O)[O-])cc2)c2cc(Br)ccc2CC1C (configuration not stated) | 178 to 180 |
| CC12CCC(O)CC1=CCC1C2CCC2(C)C(n3cnc4ccccc43)=CCC12 (configuration not stated) | 189 to 190 |
| CC[C@H](C)COc1ccc(O)cc1 | 44 to 45 |

| Compound | melting point [°C] |
| --- | --- |
| CCOC(=O)c1ccc(OCC(O)COc2cccc3oc(C(=O)OCC)cc(=O)c23)cc1 (configuration not stated) | 134 to 135 |
| CC(C)(C)OC(=O)Nc1cc(OCc2ccccc2)c(OCc2ccccc2)cn1 | 163 |
| Clc1ccc2c(c1)Cn1cccc1C(C1CCN(CCc3ccccc3)CC1)O2 (configuration not stated) | 145 to 147 |
| CC(=O)C(=[N+]=[N-])C(=O)CCc1ccccc1 | 30 to 32 |
| CCC(=O)Nc1cccc(C2(c3cc(C(=O)CC)n(CC)c3)N=C(N)N(C)C2=O)c1 (configuration not stated) | 120 to 141 |
| O=C1c2c(Cl)cccc2-n2cnc(-c3noc(CN4CCCC4)n3)c2[C@@H]2CCN12 | 117 to 120 |
| O=C(c1ccccc1)C(CCCCl)c1ccccc1 (configuration not stated) | 72 to 74 |
| CCn1nc2c(N)nc(C)cc2c1CC(C)(C)O | 134 to 135 |
| CCCCCCCCCCCCCCCCCCOc1cc(OCCCCCCOc2ccc(OCc3ccccc3)cc2)cc(C(=O)OCc2ccccc2)c1 | 60 to 62 |
| O=S(=O)(Cl)c1ccc2oc3cc(Br)ccc3c2c1 | 191 to 193 |
| C=C(NC(=O)OC(C)(C)C)C(=O)OCc1ccc([N+](=O)[O-])cc1 | 94 to 95 |
| OCc1ccc2ccn(C3CCN(CCc4ccccc4F)CC3)c2c1 | 117 to 118 |
| NC1(C(=O)O)CC(O)C2C(C(=O)O)C21 (configuration not stated) | 78 to 80 |
| CC(C)(C)OC(=O)CN1CCN(CC(=O)O)C1=O | 112 to 113 |
| CN(Cc1ccc(NC(=O)C2=Cc3cc(-c4ccc(Cl)cc4)ccc3OCC2)cc1)C1CCOCC1 | 191 to 192 |
| O=C(OCC(O)CO)c1cc(F)ccc1Nc1ccnc2cc(Cl)ccc12 (configuration not stated) | 168 |
| CC1N(c2cc(CC(Cl)C(=O)O)c(Cl)cc2Cl)NC(=O)N1C(F)F (configuration not stated) | 138 to 141 |
| COc1c(C)c(C)c(OC)c(Cn2ccnc2)c1C | 82 to 83 |
| Cc1cc(C(=O)CBr)c(C)o1 | 56 to 58 |
| c1ccc2nc3c(nc2c1)OCC1CCCN31 (single isomer, unassigned; (+)) | 121 to 123 |
| O=c1oc2ccccc2c2c1CN(CCN1CC3CCCC(C3)C1)CC2 | 129 to 130 |

Second part, the compound after the results:

| melting point [°C] | Compound |
| --- | --- |
| 206 to 208 | NC(=O)c1ccc(-c2cccc(N)c2)cc1 |
| 165 | COc1nnc(-c2ccccc2)c(=O)n1N |
| 164 to 165 | CS(=O)(=O)c1ccc(-c2ccccc2N)cc1 |
| 184 to 186 | Cc1ccc2cccc(OCc3c(Cl)ccc(C=O)c3Cl)c2n1 |
| 199 to 201 | Nc1c(F)c(F)[nH]c(=O)c1F |
| 107 to 110 | CC(=O)OC(C)N1C(=O)/C(=C\c2[nH]c(C)cc2C)c2ccccc21 (configuration not stated) |
| 120 to 121 | CCCCN=c1cc2n(c(=O)n1C)CCc1cc(OC)c(OC)cc1-2 |
| 167 to 169 | C=CCNC(=O)[C@H]1CN(c2ccc(N3CCOCC3)c(F)c2)C(=O)O1 |
| 137 to 139 | CC(C)Oc1cn(-c2cccc(C(F)(F)F)c2)nc(-c2ccnn2-c2ccccc2)c1=O |
| 102 to 103 | Cc1nc2c(cc1CO)CCCC2=Cc1ccccc1 |
| 85 to 87 | CCOc1cc(CF)nc(N)n1 |
| 173 to 175 | COC(=O)Cn1c(C(=O)Nc2nc(-c3cc(OC)c(C)cc3OC)c(CCC3CCCCC3)s2)cc2cc(OC)ccc21 |
| 175 to 176 | COC(=O)c1cc2cnc(N3CCC[C@H]3CO)nc2n(Cc2ccc(OC)c(Cl)c2)c1=O |
| 147 to 149 | CN(C)c1ccc(C(=O)C(O)c2cccc(F)c2)cc1 (configuration not stated) |
| 148 | O=C1C/C(=C\c2ccccc2[N+](=O)[O-])C(=O)N1 |
| 124 | CCOC(=O)C1CCN(c2cc(-n3c(=O)cc(C(F)(F)F)[nH]c3=O)c(F)cc2C#N)CC1 |
| 174 to 176 | Cc1cccc2ncc(C(=O)NC3CCCCC3)c(=O)n12 |
| 98 to 100 | CCOC(=O)c1cn(Cc2cn(-c3ccc(N4CC(CNC(=O)OC)OC4=O)cc3F)nn2)nc1N (configuration not stated) |
| 186 to 188 | CCn1cc(C(=O)Cl)c(=O)c2ccc(Cl)nc21 |

| melting point [°C] | Compound |
| --- | --- |
| 80 to 81 | O=C(Cl)c1cc(Oc2ccc(Br)cc2)cc(C(=O)Cl)c1 |
| 237 to 240 | COC(=O)[C@@H]1CSCc2c(O[Si](C)(C)C(C)(C)C)cc(OC)c(C)c2C(=O)OC[C@H](O)C(=O)N1 |
| 119 to 120 | COc1ccccc1C(=O)OC1=C(c2nnc(-c3ccccc3OC)o2)N(C)S(=O)(=O)c2ccccc21 |
| 94 to 95 | COC(=O)c1cccc(F)c1O |
| 67 | CCCCCCCNC(=O)Oc1ccc2c(c1)CCCN2 |
| 99 to 101 | COc1cc2sc(C#N)cc2cc1OC(F)F |
| 85 to 92 | COc1ccc2c(c1F)CSCC2=O |
| 180 | COC(=O)c1cc(F)ccc1Nc1ccnc2cc(Cl)ccc12 |
| 84 to 85.5 | CCOC(=O)C(=O)c1ccccc1Nc1c(Cl)cccc1Cl |
| 127 to 129 | CCOC(=O)c1cc2ccc([Si](C)(C)C)cc2[nH]1 |
| 91 | COC(=O)c1cc(-c2cccs2)cc(C)c1NS(=O)(=O)c1ccc(OC)cc1 |
| 125 to 128 | CN1C(=O)C2C3C=CC(CC3)C2(c2ccc(Cl)c(Cl)c2)C1=O (configuration not stated) |
| 195 to 197 | COn1c(Br)c(C#N)c(Br)c1-c1ccc(Cl)cc1 |
| 227 to 228 | COc1cc2cc(Cl)nc(N3CCN(C(=O)Nc4ccc([N+](=O)[O-])cc4)CC3)c2cc1OC |
| 95 to 96 | COC(=O)CCCON1CCNC1=Nc1c(Cl)cccc1Cl |
| 142 to 143 | COc1cc2cc(CO)c(CO)c(-c3cccc(-n4c(=O)ccc5ccccc54)n3)c2cc1OC |
| 203 to 204 | COc1ccc2c(c1)CCC1=C2CCC(=O)N1 |
| 137 to 139 | COc1ccc(F)c(F)c1C(=O)c1cnc(Cl)nc1Cl |
